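GI50 is the concentration that inhibits growth by half. Definition used: TGI = concentration required for complete inhibition of growth.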
Tests used:
Experiment in all cases: NCI tumour cell line growth inhibition, 384-well format
SF-268 CNS = test system: SF-268 CNS
SK-MEL-2 melanoma = test system: SK-MEL-2 melanoma
MALME-3M melanoma = test system: MALME-3M melanoma
DU-145 prostate = test system: DU-145 prostate
HT29 colon = test system: HT29 colon
OVCAR-5 ovarian = test system: OVCAR-5 ovarian
MDA-MB-468 breast = test system: MDA-MB-468 breast
SR leukemia = test system: SR leukemia
UACC-62 melanoma = test system: UACC-62 melanoma
SK-MEL-28 melanoma = test system: SK-MEL-28 melanoma
SF-295 CNS = test system: SF-295 CNS
UACC-257 melanoma = test system: UACC-257 melanoma
OVCAR-4 ovarian = test system: OVCAR-4 ovarian
HOP-92 NSCLC = test system: HOP-92 NSCLC
MOLT-4 leukemia = test system: MOLT-4 leukemia
CCRF-CEM leukemia = test system: CCRF-CEM leukemia
SK-OV-3 ovarian = test system: SK-OV-3 ovarian
NCI-H226 lung = test system: NCI-H226 lung
HCT-15 colon = test system: HCT-15 colon
KM12 colon = test system: KM12 colon
SF-539 CNS = test system: SF-539 CNS
SW-620 colon = test system: SW-620 colon
MCF7 breast = test system: MCF7 breast
MDA-MB-231 breast = test system: MDA-MB-231 breast
SK-MEL-5 melanoma = test system: SK-MEL-5 melanoma
OVCAR-8 ovarian = test system: OVCAR-8 ovarian
OVCAR-3 ovarian = test system: OVCAR-3 ovarian
MDA-MB-435 melanoma = test system: MDA-MB-435 melanoma
K-562 leukemia = test system: K-562 leukemia
PC-3 prostate = test system: PC-3 prostate
TK-10 renal = test system: TK-10 renal
HL-60(TB) leukemia = test system: HL-60(TB) leukemia
A549 NSCLC = test system: A549 NSCLC
LOX IMVI melanoma = test system: LOX IMVI melanoma
786-0 renal = test system: 786-0 renal
UO-31 renal = test system: UO-31 renal
RXF 393 renal = test system: RXF 393 renal
NCI-H23 lung = test system: NCI-H23 lung
SN12C renal = test system: SN12C renal
HCC-2998 colon = test system: HCC-2998 colon
NCI-H322M lung = test system: NCI-H322M lung
BT-549 breast = test system: BT-549 breast
T-47D breast = test system: T-47D breast
COLO 205 colon = test system: COLO 205 colon
IGROV1 ovarian = test system: IGROV1 ovarian
HCT-116 colon = test system: HCT-116 colon
RPMI-8226 leukemia = test system: RPMI-8226 leukemia
NCI/ADR-RES ovarian = test system: NCI/ADR-RES ovarian
U251 glioblastoma = test system: U251 glioblastoma
M14 melanoma = test system: M14 melanoma
NCI-H522 lung = test system: NCI-H522 lung
SNB-19 CNS = test system: SNB-19 CNS
CAKI-1 renal = test system: CAKI-1 renal
NCI-H460 NSCLC = test system: NCI-H460 NSCLC
HOP-62 NSCLC = test system: HOP-62 NSCLC
ACHN renal = test system: ACHN renal
A498 renal = test system: A498 renal

`CCN1[C@@H](C(=O)NC23CCC(C(=O)O)(CC2)CC3)[C@H](c2cccc(Cl)c2F)[C@]2(C(=O)Nc3cc(Cl)ccc32)C12CCCCC2` was tested, and the GI50 (SF-268 CNS) was 2340 nM, the TGI (SF-268 CNS) was 6800 nM and the GI50 (SK-MEL-2 melanoma) was 638 nM. For the same molecule, the TGI (SK-MEL-2 melanoma) was 2160 nM, the GI50 (MALME-3M melanoma) was 14 nM and the TGI (MALME-3M melanoma) was 659 nM. The GI50 (DU-145 prostate) was 3390 nM, the TGI (DU-145 prostate) was 12300 nM and the GI50 (HT29 colon) was 3520 nM. For the same molecule, the TGI (HT29 colon) was 13900 nM, the GI50 (OVCAR-5 ovarian) was 1920 nM and the TGI (OVCAR-5 ovarian) was 4660 nM. The GI50 (MDA-MB-468 breast) was 1700 nM, the TGI (MDA-MB-468 breast) was 3610 nM and the GI50 (SR leukemia) was < 10 nM. For the same molecule, the GI50 (UACC-62 melanoma) was < 10 nM, the TGI (UACC-62 melanoma) was 364 nM and the GI50 (SK-MEL-28 melanoma) was 2760 nM. For the same molecule, the TGI (SK-MEL-28 melanoma) was 7420 nM, the GI50 (SF-295 CNS) was 1240 nM and the TGI (SF-295 CNS) was 2670 nM. The GI50 (UACC-257 melanoma) was 148 nM, the TGI (UACC-257 melanoma) was 431 nM and the GI50 (OVCAR-4 ovarian) was 2220 nM. The TGI (OVCAR-4 ovarian) was 7320 nM, the GI50 (HOP-92 NSCLC) was 1770 nM and the TGI (HOP-92 NSCLC) was 4430 nM. For the same molecule, the GI50 (MOLT-4 leukemia) was < 10 nM, the GI50 (CCRF-CEM leukemia) was 1420 nM and the TGI (CCRF-CEM leukemia) was 2750 nM. For the same molecule, the GI50 (SK-OV-3 ovarian) was 2960 nM, the TGI (SK-OV-3 ovarian) was 13700 nM and the GI50 (NCI-H226 lung) was < 10 nM. It also gave a TGI (NCI-H226 lung) of 81.7 nM, a GI50 (HCT-15 colon) of 2660 nM and a TGI (HCT-15 colon) of 10100 nM. For the same molecule, the GI50 (KM12 colon) was 2870 nM, the TGI (KM12 colon) was 9120 nM and the GI50 (SF-539 CNS) was 2120 nM. The TGI (SF-539 CNS) was 5190 nM, the GI50 (SW-620 colon) was 3790 nM and the TGI (SW-620 colon) was 13400 nM. It also gave a GI50 (MCF7 breast) of 26.9 nM, a TGI (MCF7 breast) of 1120 nM and a GI50 (MDA-MB-231 breast) of 3130 nM. The TGI (MDA-MB-231 breast) was 14200 nM, the GI50 (SK-MEL-5 melanoma) was 239 nM and the TGI (SK-MEL-5 melanoma) was 1810 nM. For the same molecule, the GI50 (OVCAR-8 ovarian) was 3000 nM, the TGI (OVCAR-8 ovarian) was 11400 nM and the GI50 (OVCAR-3 ovarian) was 1440 nM. It also gave a TGI (OVCAR-3 ovarian) of 2900 nM, a GI50 (MDA-MB-435 melanoma) of 2260 nM and a TGI (MDA-MB-435 melanoma) of 5650 nM. For the same molecule, the GI50 (K-562 leukemia) was 2830 nM, the TGI (K-562 leukemia) was 11000 nM and the GI50 (PC-3 prostate) was 2880 nM. For the same molecule, the TGI (PC-3 prostate) was 9400 nM, the GI50 (TK-10 renal) was 2890 nM and the TGI (TK-10 renal) was 11400 nM. The GI50 (HL-60(TB) leukemia) was 2030 nM, the TGI (HL-60(TB) leukemia) was 3460 nM and the GI50 (A549 NSCLC) was 45.2 nM. It also gave a TGI (A549 NSCLC) of 1140 nM, a GI50 (LOX IMVI melanoma) of 323 nM and a TGI (LOX IMVI melanoma) of 1840 nM. It also gave a GI50 ([…]-0 renal) of 3490 nM, a TGI (786-0 renal) of 13500 nM and a GI50 (UO-31 renal) of 19.3 nM. It also gave a TGI (UO-31 renal) of 161 nM, a GI50 (RXF 393 renal) of 1020 nM and a TGI (RXF 393 renal) of 2560 nM. It also gave a GI50 (NCI-H23 lung) of 1490 nM, a TGI (NCI-H23 lung) of 3950 nM and a GI50 (SN12C renal) of 3530 nM. For the same molecule, the TGI (SN12C renal) was 12700 nM, the GI50 (HCC-2998 colon) was 1270 nM and the TGI (HCC-2998 colon) was 2910 nM. It also gave a GI50 (NCI-H322M lung) of 3870 nM, a TGI (NCI-H322M lung) of 15100 nM and a GI50 (BT-549 breast) of 1930 nM. The TGI (BT-549 breast) was 6160 nM, the GI50 (T-47D breast) was 1620 nM and the TGI (T-47D breast) was 6270 nM. It also gave a GI50 (COLO 205 colon) of 2200 nM, a TGI (COLO 205 colon) of 4460 nM and a GI50 (IGROV1 ovarian) of 244 nM. It also gave a TGI (IGROV1 ovarian) of 2770 nM, a GI50 (HCT-116 colon) of 30.3 nM and a TGI (HCT-116 colon) of 1490 nM. The GI50 (RPMI-8226 leukemia) was 1260 nM, the TGI (RPMI-8226 leukemia) was 2510 nM and the GI50 (NCI/ADR-RES ovarian) was 3640 nM. For the same molecule, the TGI (NCI/ADR-RES ovarian) was 13600 nM, the GI50 (U251 glioblastoma) was 3070 nM and the TGI (U251 glioblastoma) was 11500 nM. The GI50 (M14 melanoma) was 35 nM, the TGI (M14 melanoma) was 2370 nM and the GI50 (NCI-H522 lung) was 2410 nM. For the same molecule, the TGI (NCI-H522 lung) was 6920 nM, the GI50 (SNB-19 CNS) was 3090 nM and the TGI (SNB-19 CNS) was 12800 nM. The GI50 (CAKI-1 renal) was < 10 nM, the TGI (CAKI-1 renal) was 418 nM and the GI50 (NCI-H460 NSCLC) was 29.4 nM. It also gave a TGI (NCI-H460 NSCLC) of 1080 nM, a GI50 (HOP-62 NSCLC) of 1590 nM and a TGI (HOP-62 NSCLC) of 4190 nM. It also gave a GI50 (ACHN renal) of 19.4 nM, a TGI (ACHN renal) of 390 nM and a GI50 (A498 renal) of 13.6 nM. It also gave a TGI (A498 renal) of 1090 nM.

— PubChem BioAssay (NCI)
